Consider 28 compounds from ChEMBL document CHEMBL3871294, “Synthesis of novel substituted pyrimidine derivatives bearing a sulfamide group and their in vitro cancer growth inhibition activity” (Bioorg Med Chem Lett, 2017).

The nature of data set [1]: Antiproliferative activity against estrogen dependent human MCF7 cells after 48 hrs by SRB assay. Type of data set: functional. The conditions noted are these: MCF7, 48 h. Background: In SRB staining, fixed cells bind dye roughly in proportion to their protein.
Data set [2] is described as follows: Antiproliferative activity against human M21 cells after 48 hrs by SRB assay. The class given is functional. The conditions noted are these: M21, 48 h.
A short description of data set [3]: Antiproliferative activity against human HT-29 cells after 48 hrs by SRB assay. The conditions noted are these: HT-29, 48 h. The class given is functional.
The nature of data set [4]: Antiproliferative activity against human T47D cells. The class given is functional.
Data set [5] can be described thus: Antiproliferative activity against human SKBR3 cells. Type of data set: functional. The conditions noted are these: SK-BR-3.
Data set [6] can be described thus: Antiproliferative activity against human HaCaT cells. The class given is cell-based.
Data set [7] in a line: Antiproliferative activity against human MDA-MB-468 cells. Type of data set: functional.
The nature of data set [8]: Antiproliferative activity against human MDA-MB-231 cells. The class given is functional.
The nature of data set [9]: Antiproliferative activity against neonatal-NHDF cells. The class given is cell-based. The conditions noted are these: human.

The structures appear in SMILES notation.

As usually defined, the GI50 is the concentration giving 50% growth inhibition. For the compound `NS(=O)(=O)NCC1CCN(c2cc(-c3ccc(C(F)(F)F)cc3)ncn2)CC1`, the GI50 in [1] stood at 22.5 µM; in [2], 43.1 µM; in data set [3], 29.1 µM.
Consider `NS(=O)(=O)NCC1CCN(c2cc(-c3ccccc3Cl)ncn2)CC1`, for which the GI50 in data set [4] is 65.5 µM; in data set [5], above 100 µM; in data set [1], 62.4 µM; in [2], above 100 µM; in data set [3], above 100 µM; in data set [6], above 100 µM. Moreover, the concentration for 50% growth inhibition (GI50) is above 100 µM in data set [7], above 100 µM in [8] and 93 µM in [9].
For the compound `CCOC(=O)c1ccc(-c2cc(N3CCC(CCNS(N)(=O)=O)CC3)ncn2)cc1`, the GI50 in data set [1] came out at 6.2 µM; in data set [2], 9 µM; in data set [3] it was 6.8 µM.
The like results for `NS(=O)(=O)NCCC1CCN(c2cc(-c3ccc(Cl)cc3)ncn2)CC1` were, in that order, 19.7 µM, 45.2 µM and 30.5 µM.
The like results for `NS(=O)(=O)NCC1CCN(c2cc(-c3ccccc3F)ncn2)CC1` were, in that order, 48.5 µM, above 100 µM and 80.4 µM.
The like results for `COC(=O)c1ccc(-c2cc(N3CCC(CCNS(N)(=O)=O)CC3)ncn2)cc1` were, in that order, 17.6 µM, 19.6 µM and 19.6 µM.
With `Cc1ccc(-c2cc(N3CCC(CCNS(N)(=O)=O)CC3)ncn2)cc1`, the results for the 50% growth inhibitory concentration (GI50) in [1], in data set [2] and in data set [3] were 47.5 µM, 57.6 µM and 52.3 µM, respectively.
With `COc1ccc(-c2cc(N3CCC(CCNS(N)(=O)=O)CC3)ncn2)cc1`, the figures for the GI50 in data set [1], in [2] and in data set [3] were 56.6 µM, 69.8 µM and 72.3 µM, respectively.
The like results for `NS(=O)(=O)NCC1CCN(c2cc(-c3cccc4ccccc34)ncn2)CC1` were, in that order, 12.1 µM, 6.6 µM and 6.8 µM.
The like results for `COc1ccccc1-c1cc(N2CCC(CCNS(N)(=O)=O)CC2)ncn1` were, in that order, 69.8 µM, 96.9 µM and 74.3 µM.
Regarding `CCCCc1ccc(-c2cc(N3CCC(CCNS(N)(=O)=O)CC3)ncn2)cc1`, the 50% growth inhibitory concentration (GI50) in data set [1] stood at 11.3 µM; in data set [2], 15.1 µM; in data set [3], 13.3 µM.
Turning to `NS(=O)(=O)NCC1CCN(c2cc(-c3ccccc3)ncn2)CC1`, the concentration for 50% growth inhibition (GI50) is 24.1 µM in data set [4]; above 100 µM in data set [5]; 34.3 µM in [1]; above 100 µM in [2]; above 100 µM in [3]; above 100 µM in data set [6]. Moreover, the concentration for 50% growth inhibition (GI50) in data set [7], in data set [8] and in [9] was above 100 µM in each case.
Turning to `CC(C)(C)c1ccc(-c2cc(N3CCC(CCNS(N)(=O)=O)CC3)ncn2)cc1`, the GI50 in [1] turned out to be 13.1 µM; in data set [2] it was 18.4 µM; in data set [3] it was 10.3 µM.
Take `NS(=O)(=O)NCCC1CCN(c2cc(-c3cccc(Cl)c3)ncn2)CC1`: the GI50 is 31.2 µM in data set [1], 50.7 µM in data set [2] and 31.6 µM in data set [3].
The like results for `CCOC(=O)c1ccc(-c2cc(N3CCC(CNS(N)(=O)=O)CC3)ncn2)cc1` were, in that order, 4.1 µM, 5 µM and 5.7 µM.
In the same order, the values of `CC(C)(C)c1ccc(-c2cc(N3CCC(CNS(N)(=O)=O)CC3)ncn2)cc1` are 19.7 µM, 19.3 µM and 8.9 µM.
For `NS(=O)(=O)NCC1CCN(c2cc(-c3ccc(Cl)cc3)ncn2)CC1`, the GI50 in [1] is 25.5 µM; in data set [2] it was 50.3 µM; in data set [3] it was 37.7 µM.
The like results for `COC(=O)c1ccc(-c2cc(N3CCC(CNS(N)(=O)=O)CC3)ncn2)cc1` were, in that order, 17.7 µM, 14.1 µM and 22.9 µM.
Turning to `COc1ccc(-c2cc(N3CCC(CNS(N)(=O)=O)CC3)ncn2)cc1`, the GI50 in [4] is 24.5 µM; in [5], above 100 µM; in data set [1] it was 35.3 µM; in data set [2] it was above 100 µM; in data set [3], above 100 µM; in data set [6], above 100 µM. Further, the figures for the GI50 in data set [7], in data set [8] and in [9] were above 100 µM, above 100 µM and 77 µM, respectively.
In the case of `NS(=O)(=O)NCCC1CCN(c2cc(-c3ccccc3F)ncn2)CC1`, the concentration for 50% growth inhibition (GI50) in [1] is above 100 µM; in data set [2], 81.8 µM; in data set [3], 51.8 µM.
The like results for `NS(=O)(=O)NCCC1CCN(c2cc(-c3cccc4ccccc34)ncn2)CC1` were, in that order, 5.9 µM, 1.8 µM and 3.5 µM.
Take `COc1ccccc1-c1cc(N2CCC(CNS(N)(=O)=O)CC2)ncn1`: the GI50 was above 100 µM in data set [4]; above 100 µM in [5]; 10.1 µM in data set [1]; above 100 µM in data set [2]; above 100 µM in [3]; above 100 µM in data set [6]. Moreover, the GI50 in data set [7], in data set [8] and in data set [9] was above 100 µM in each case.
Consider `NS(=O)(=O)NCCC1CCN(c2cc(-c3ccccc3)ncn2)CC1`, for which the GI50 in data set [1] is 53.2 µM; in [2], above 100 µM; in data set [3] it was 66.5 µM.
The like results for `NS(=O)(=O)NCC1CCN(c2cc(-c3cccc(Cl)c3)ncn2)CC1` were, in that order, 47.1 µM, 62.5 µM and 47.5 µM.
In the same order, the values of `Cc1ccc(-c2cc(N3CCC(CNS(N)(=O)=O)CC3)ncn2)cc1` are 30.6 µM, 71 µM and 33.9 µM.
The like results for `CCCCc1ccc(-c2cc(N3CCC(CNS(N)(=O)=O)CC3)ncn2)cc1` were, in that order, 21.8 µM, 47.2 µM and 15.2 µM.
Take `NS(=O)(=O)NCCC1CCN(c2cc(-c3ccc(C(F)(F)F)cc3)ncn2)CC1`: the GI50 in [1] worked out at 15.2 µM; in [2], 34.8 µM; in [3], 22.6 µM.
The like results for `NS(=O)(=O)NCCC1CCN(c2cc(-c3ccccc3Cl)ncn2)CC1` were, in that order, 44.8 µM, 93.9 µM and 52.9 µM.
